Experimental data taken from patent publication US9540299B2, “MTOR-independent activator of TFEB for autophagy enhancement and uses thereof” (Hong Kong Baptist University, priority 2015, dated 2017).

Test system: Hela cells
Assay: Western blot of TFEB, LC3-II, LAMP1, CTSD in Hela cells
Format: cell-based, human
Procedure: Various gene expressions in Hela cells (FIG. 7A) and SH-SY5Y cells (FIG. 7B) after treated with C1 (1 μM) for 12 h. mRNA transcript abundance is assessed by real-time PCR using specific primers for the indicated genes. Relative quantification (RQ) is presented as means±SD of three independent experiments. FIG. 7C is western blot showing the protein levels of autophagy marker (LC3-II), TFEB and lysosome markers (LAMP1, CTSD) in Hela and SH-SY5Y cells having treated with C1 (0.5, 1 μM) or sucrose (100 mM) for 12 h. The relative intensity of autophagy marker (LC3-II), TFEB and lysosome markers (LAMP1, CTSD) normalized to that of ACTB/β-actin in Hela cells (FIG. 7D) and SH-SY5Y cells (FIG. 7E). Data are presented as the mean±SD from three independent experiments. *p<0.05 vs. the control (0.1% DMSO). […] Autophagy-enhancing effect of C1 is TFEB-dependent. Data are presented as the mean±SD from three independent experiments. *p<0.05 vs. the control. N. S.=not significant.
N2a, Hela and Hela cells stably expressing 3×-Flag-TFEB are cultured in DMEM supplemented with 10% FBS. SH-SY5Y cells are cultured in DMEM/F12 supplemented with 10% FBS. For drug treatment, the full medium is replaced by fresh Opti-MEM I and then the compounds (in 0.1% DMSO) are added to the cells and incubated for 12 h. Inducible PC12 cells overexpressing SNCA (WT and A53T) (a kind gift from Prof. David C. Rubinsztein at Cambridge University) are grown in DMEM supplemented with 10% horse serum, 5% FBS, 50 μg/ml G418, and 150 μg/ml hygromycin B at 37° C., 10% CO2. Cells are treated with 2 μg/ml doxycycline (Dox) for 24 h to induce SNCA expression. The full medium is changed to Opti-MEM I containing the testing compounds for another 48 h. […]
Cells are lysed on ice in 1× Lysis Buffer (9803, Life Technologies) with complete protease inhibitor mixture (04693124001, Roche Applied Science). […] The protein signals are detected by ECL kit (32106, Pierce) and quantified using ImageJ software.

COc1ccccc1/C=C/C(=O)/C=C/c1ccccc1OC [C1, 1,5-bis(2-methoxyphenyl)penta-1,4-dien-3-one]
autophagy/lysosomal biogenesis (LC3-II, LAMP1, CTSD protein levels) (Hela cells, 0.5, 1 μM, 12 h): activated | protein levels of TFEB (Hela cells, 0.5, 1 μM, 12 h): increased | increase in LC3-II levels in cells transfected with TFEB siRNA (Hela cells, siTFEB 100 nM 72 h, then 1 μM 12 h): blocked
